Test results taken from US8013190B2, “Chemical composition with borane clusters for use as an HIV protease inhibitor” (Vysoka Skola Chemicko-Technologicka V Praze, priority 2004, dated 2011).
Where two headings read alike, the source gives them in different places.

How the values were obtained:
wild type HIV-1 protease = molecular target: T1, wild type HIV-1 protease (Human immunodeficiency virus type 1 group M subtype B, UniProt P12497); test: Inhibition of pure recombinant HIV protease with chromogenic peptide substrate (spectrophotometric); assay type: biochemical
T1 construct: using pure recombinant HIV protease and chromogenic peptide substrate
Experimental: (§1) Initially, known and novel compounds were tested as to their ability to inhibit specific activitity of HIV protease in vitro using pure recombinant HIV protease and chromogenic peptide substrate derived from amino acid sequence of one of the sites of cleavage of viral polyprotein. Testing was performed using the method published by one of the co-inventors of this invention (Konvalinka, J., Litera, J., Weber, J., Vondrásek, J., Hradilek, M., Soucek, M., Pichová, I., Majer, P., Strop, P., Sedlácek, J., Heuser, A. -M., Kottler, H. and Kraeusslich, H. -G. (1997). Eur. J. Biochem. 250, 559-566). […] The reaction course is observed spectrophotometrically as decrease of the absorbance at 305 nm.
The mechanism of action of tested compounds (inhibition type) were determined from dependence of initial reaction rate on substrate concentration at different inhibitor concentrations (Lineweaver-Burke plot). Dependence of initial enzyme reaction rate on substrate concentration is measured at various inhibitor concentrations (here 0 and 15 μM). The measurements were performed at pH 4.7, 37° C. in 0.1 M acetate buffer containing 0.3M NaCl. y axis: reciprocal value of initial enzyme reaction rate, x axis: reciprocal value of substrate concentration (mol/dm^3).

[1] = tested on: HIV proviral clone NL 4-3; test: HIV infectivity inhibition in tissue cultures transfected with proviral clone NL4-3, titration on TZM reporter cells; assay type: cell-based; settings: for effect on virus infectivity: 293 T cells transfected by NL 4-3, FIG. 5
Experimental: The antiviral activity of compounds GB-8, GB-12 and GB-16 in tissue cultures was analyzed using two variations of a published procedure (Benyoucef S, Hober D, Shen L, Ajana F, Gerard Y, Bocket-Mouton L, Mouton Y, Wattre P. (1996) Microbiol Immunol. 40(5), 381-8). The production of infectious HIV particles and influences of HIV protease inhibitors on the infectivity was directly determined by these assays.
For testing of compounds GB-8, GB-12 and GB-16, HeLa cells were transfected by DNA encoding pNL-43 strain of HIV virus that contained beta-galactosidase gene in the site of viral nef gene. All transfections were performed in duplicate. Medium was replaced the next day following the transfection, and protease inhibitors dissolved in DMSO were added into fresh medium. The control was incubated in the same DMSO concentration as tested cells. The supernatant of transfected cells was used in next round for reporter cells infection. Infectivity was quantified by enzyme beta-galactosidase activity in infected cells and the infected cells were visualised using chromogenic beta-galactosidase substrate (X-gal). Viral proteins of newly created virions were separated by SDS PAGE and immunochemically visualised using antibodies against HIV capsid protein (Western blot).
In paralel experiments, HIV was produced in 293 T cells transfected by proviral clone NL 4-3. All transfections were performed in duplicate. Medium was replaced the next day following the transfection, and protease inhibitors dissolved in DMSO were added into fresh medium. The control was incubated in the same DMSO concentration as tested cells. Viral infectivity was quantified by titration of the cell supernatant by TZM cell (reporter cells bearing in their genome LTR promotor from HIV bound with beta-galactosidase gene, activated by Tat protein produced by the virus). After two days following the infection the reporter cells were lysed and fixed by methanol/acetone mixture. Beta-galactosidase activity of infected cells was visualised by blue color after chromogenic substrate X-gal addition.

[2] = molecular target: T2, HIV PR 15 (M46I, A71V, V82T, I84V) (Human immunodeficiency virus type 1 group M subtype B, UniProt P12497, A559V/I572V/M534I/V570T); assay type: biochemical, HIV-1; settings: read-out: Inhibition constants Ki
T2 construct: using pure recombinant HIV protease and chromogenic peptide substrate
Experimental: as §1

[3] = molecular target: T3, HIV PR 5/1 (L10I, I15V, E35D, N37S, R41K, I62V, L63P, A71V, G73S, L90M) (Human immunodeficiency virus type 1 group M subtype B, UniProt P12497, A559V/E523D/G561S/I503V/I550V/L498I/L551P/L578M/N525S/R529K); assay type: biochemical, HIV-1; settings: read-out: Inhibition constants Ki
T3 construct: using pure recombinant HIV protease and chromogenic peptide substrate
Experimental: as §1

[4] = molecular target: T4, HIV PR K4 (L10I, L24I, L33F, M46L, I54V, L63P, A71V, V82A, I84V) (Human immunodeficiency virus type 1 group M subtype B, UniProt P12497, A559V/I542V/I572V/L498I/L512I/L521F/L551P/M534L/V570A); assay type: biochemical, HIV-1; settings: read-out: Inhibition constants Ki
T4 construct: using pure recombinant HIV protease and chromogenic peptide substrate
Experimental: as §1

virus strain NL4-3 = test: HIV infectivity inhibition in PM1 cell cultures infected by NL4-3, titration on TZM-cells; assay type: cell-based; settings: 6,6 to 60 μM, 40 h
Experimental: For testing of compound GB-48, PM1 cell cultures infected by virus strain NL4-3 were split 2 days post infection 1 to 10 with fresh, uninfected cells. To remove unbound virus cells were washed with pre-warmed medium four hours post infection. Cells were subsequently incubated for 40 h with a GB-48 dissolved in DMSO at a final concentration from 0.74 to 60 μM. Control cells were incubated with the same amount of DMSO as the GB-48 treated cells. To harvest the free virus cells were centrifuged at 1500 rpm for 5 min and 10 μl of the supernatants were used for titration. Changes in viral infectivity were analysed by titration of the supernatants on TZM-cells as described above. Two days post infection TZM-cells were lysed and fixed with methanol/aceton. The beta-galactosidase activity of infected cells was visualised by blue stain upon X-Gal addition. All titrations were done in duplicate assays. The viral titer and standard deviation was calculated from three independent titrations. Example of the activity testing is given on FIG. 6. […] At these concentrations drops in viral titer of at least 3 orders of magnitude in virus infectivity were observed.

wild-type HIV-2 PR = molecular target: T5, wild-type HIV-2 PR (Human immunodeficiency virus type 2 subtype A, UniProt P04584); test: Inhibition of recombinant protease, chromogenic substrate; assay type: biochemical
T5 construct: performed also for wild type HIV-2 protease, mutant HIV-1 PR 3/1 and cathepsin D
T5 sequence (P04584 514-612 limits assumed): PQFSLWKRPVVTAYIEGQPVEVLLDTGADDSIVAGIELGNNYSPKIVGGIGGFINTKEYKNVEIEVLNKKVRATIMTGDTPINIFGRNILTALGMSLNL
Experimental: as §1, with “nm. IC50 values of tested compounds were calculated from experimental data, as taught in (Majer, P., Urban, J., Gregorová, E., Konvalinka, J., Novek, P., Stehlíková, J., Andreánsky, M., Sedlácek, J. and Strop, P. (1993) Arch.Biochem.Biophys. 304, 1-8) and are shown in Table 1.” for “nm.”
(§2) Inhibition testing of GB-16 was performed also for wild type HIV-2 protease, mutant HIV-1 PR 3/1 and cathepsin D. Results are shown in Table 2.

mutant HIV-1 PR 3/1 = test: as above; assay type: biochemical
Experimental: as §1, with “nm. IC50 values of tested compounds were calculated from experimental data, as taught in (Majer, P., Urban, J., Gregorová, E., Konvalinka, J., Novek, P., Stehlíková, J., Andreánsky, M., Sedlácek, J. and Strop, P. (1993) Arch.Biochem.Biophys. 304, 1-8) and are shown in Table 1.” for “nm.”
as §2

cathepsin D = cathepsin D (Homo sapiens, UniProt P07339); test: as above; assay type: biochemical
cathepsin D, sequence (P07339 65-412, species assumed): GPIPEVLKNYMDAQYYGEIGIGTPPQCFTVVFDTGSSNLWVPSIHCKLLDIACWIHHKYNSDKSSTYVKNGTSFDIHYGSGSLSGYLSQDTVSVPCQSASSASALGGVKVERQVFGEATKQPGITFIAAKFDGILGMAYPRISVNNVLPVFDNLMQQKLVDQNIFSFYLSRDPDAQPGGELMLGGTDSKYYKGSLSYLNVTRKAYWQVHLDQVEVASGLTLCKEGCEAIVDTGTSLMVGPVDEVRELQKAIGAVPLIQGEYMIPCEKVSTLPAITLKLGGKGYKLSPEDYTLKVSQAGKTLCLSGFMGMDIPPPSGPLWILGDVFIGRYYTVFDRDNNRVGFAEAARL
Experimental: as §1, with “nm. IC50 values of tested compounds were calculated from experimental data, as taught in (Majer, P., Urban, J., Gregorová, E., Konvalinka, J., Novek, P., Stehlíková, J., Andreánsky, M., Sedlácek, J. and Strop, P. (1993) Arch.Biochem.Biophys. 304, 1-8) and are shown in Table 1.” for “nm.”
as §2

[5] = wild type HIV-1 protease, pH 4.7, Table 1 values in μM
[6] = wild type HIV-1 protease, pH 4.7, Table 1 values in nM
[7] = wild type, Table 3, read-out: Inhibition constants Ki

[8,8′-μ-O-(1,2-C2B9H10)(1′,2′-C2B9H10)-3,3′-Co]Na [GB-12]
IC50 (wild type HIV-1 protease; [5]): 5.2 µM
effect on virus infectivity [1]: block the virus infectivity

[(1,2-C2B9H10)-3,3′-Co(1′,2′-C2B9H11)-8-(OCH2CH2)2NH(CH2CH2CH2CH3)-CH2CH2OCH2CH2-8″-O-(1″,2″-C2B9H10)-3″,3′″-Co(1′″,2′″-C2B9H11)]Na [GB-48]
Ki [2]: 9 nM
Ki [3]: 4.6 nM
Ki [4]: 24 nM
IC50 (wild type HIV-1 protease; [6]): 0.1 µM
Ki (wild type HIV-1 protease; [7]): 2.2 nM
drops in viral titer (virus strain NL4-3): at least 3 orders of magnitude
effect on virus infectivity (virus strain NL4-3): strongly inhibited virus infectivity

[8-(O-P(═O)(OH)2)-(1,2-C2B9H10)(1′,2′-C2B9H11)-3,3′-Co]Na.nH2O [GB-16]
mechanism of action (inhibition type), Lineweaver-Burke plot (wild type HIV-1 protease; inhibitor 0 and 15 μM, pH 4.7, 37° C.): competitive inhibitor
IC50 (wild type HIV-1 protease; [5]): 6.2 µM
IC50 (wild type HIV-1 protease; wild-type HIV-1 PR, Table 2): 6.2 µM
Ki (wild type HIV-1 protease; wild-type HIV-1 PR, Table 2, read-out: Ki): 16300 nM
IC50 (wild-type HIV-2 PR): 15400 nM
Ki (wild-type HIV-2 PR): 7400 nM
IC50 (mutant HIV-1 PR 3/1): 13400 nM
Ki (mutant HIV-1 PR 3/1): 3600 nM
IC50 (cathepsin D): 32900 nM
Ki (cathepsin D): 17200 nM
HIV infectivity, % of the initial value ([1]; 10 μM solution, 293 T cells / TZM reporter cells): ~27%
effect on virus infectivity [1]: block the virus infectivity

[(1,2-C2B9H10)-3,3′-Co(1′,2′-C2B9H11)-8-(OCH2CH2)2NH-CH2CH2OCH2CH2-8″-O-(1″,2″-C2B9H10)-3″,3′″-Co(1′″,2′″-C2B9H11)]Na [GB-80]
Ki [2]: 22 nM
Ki [3]: 40 nM
Ki [4]: 13 nM
IC50 (wild type HIV-1 protease; [6]): 0.14 µM
Ki (wild type HIV-1 protease; [7]): 4.9 nM

[8-(OH-1,2-C2B9H10)(1′,2′-C2B9H11)-3,3′-Co]Na.nH2O [GB-8]
IC50 (wild type HIV-1 protease; [5]): 13.5 µM
effect on virus infectivity [1]: block the virus infectivity

[(8-((2-C6H5)-C6H4O-(CH2-CH2O)2)-1,2-C2B9H10)(1′,2′-C2B9H11)-3,3′-Co]Na [GB-89]
IC50 (wild type HIV-1 protease; [6]): 0.3 µM

[(1,2-C2B9H11)-3,3′-Co-(1,2-C2B8H10)-3″Co-(1″,2″-C2B9H11)]Na2 [GB-31]
IC50 (wild type HIV-1 protease; [6]): 0.1 µM

[1,2,3-((1,2-C2B9H10)-3,3′-Co(1′,2′-C2B9H11)-8-(OCH2CH2)2O)3-calix[4]arene]Na3 [GB-74]
IC50 (wild type HIV-1 protease; [6]): 0.1 µM

[(8-(2,6-(CH2C6H5)2-C6H3O-(CH2-CH2O)2)-1,2-C2B9H10)(1′,2′-C2B9H11)-3,3′-Co]Na [GB-87]
IC50 (wild type HIV-1 protease; [6]): 0.26 µM

[(8-((2-OCH3)-C6H4O-(CH2-CH2O)2)-1,2-C2B9H10)(1′,2′-C2B9H11)-3,3′-Co]Na [GB-47]
IC50 (wild type HIV-1 protease; [6]): 0.64 µM

[(8-((2-CH3)-C6H4-SO2NH-(CH2-CH2O)2)-1,2-C2B9H10)(1′,2′-C2B9H11)-3,3′-Co]Na [GB-90]
IC50 (wild type HIV-1 protease; [6]): 0.23 µM

[(8-(((4-CH3)-C6H4SO2)2N-(CH2-CH2O)2)-1,2-C2B9H10)(1′,2′-C2B9H11)-3,3′-Co]Na [GB-65]
IC50 (wild type HIV-1 protease; [6]): 0.12 µM

[(8-((CB10H10)NH-(CH2-CH2O)2)-1,2-C2B9H10)(1′,2′-C2B9H11)-3,3′-Co]K [GB-49]
IC50 (wild type HIV-1 protease; [6]): 0.22 µM

[(8-(NH2(CH2CH2CH2CH3)-(CH2-CH2O)2)-1,2-C2B9H10)(1′,2′-C2B9H11)-3,3′-Co] [GB-102]
IC50 (wild type HIV-1 protease; [5]): 2.2 µM

[(8-((4-C6H5)-C6H4O-(CH2-CH2O)2)-1,2-C2B9H10)(1′,2′-C2B9H11)-3,3′-Co]Na [GB-44]
IC50 (wild type HIV-1 protease; [6]): 0.27 µM

[(8-((2-CH2CH2-C6H5)-C6H4O-(CH2-CH2O)2)-1,2-C2B9H10)(1′,2′-C2B9H11)-3,3′-Co]K [GB-92]
IC50 (wild type HIV-1 protease; [6]): 0.17 µM

[(8-HO-(CH2-CH2O)2-1,2-C2B9H10)(1′,2′-C2B9H11)-3,3′-Co]Na [GB-1]
IC50 (wild type HIV-1 protease; [5]): 6.1 µM

[(8-(2,4,6-(Br)3-C6H2O-(CH2-CH2O)2)-1,2-C2B9H10)(1′,2′-C2B9H11)-3,3′-Co]K [GB-95]
IC50 (wild type HIV-1 protease; [6]): 0.12 µM

[1,2,3,4-((1,2-C2B9H10)-3,3′-Co(1′,2′-C2B9H11)-8-(OCH2CH2)2O)4-calix[4]arene]Na4 [GB-75]
IC50 (wild type HIV-1 protease; [6]): 0.091 µM

[(8-I-1,2-C2B9H10)(8′-I-1′,2′-C2B9H10)-3,3′-Co]Na [GB-97]
IC50 (wild type HIV-1 protease; [6]): 0.87 µM

[(8-((2-Br)-C6H4O-(CH2-CH2O)2)-1,2-C2B9H10)(1′,2′-C2B9H11)-3,3′-Co]K [GB-94]
IC50 (wild type HIV-1 protease; [6]): 0.17 µM

[(8-((C6H5)(OH)CH-CH-O-(CH2-CH2O)2)-1,2-C2B9H10)(1′,2′-C2B9H11)-3,3′-Co]Na [GB-21]
IC50 (wild type HIV-1 protease; [6]): 0.13 µM
